Assay results: patent US9029376B2, “Small molecule inhibitors for the treatment or prevention of dengue virus infection” (Siga Technologies, Inc., priority 2008, dated 2015)
pEC50: −log10 of the molar value. Read-outs that look alike come from different tables or passages of the source.

Key:
[1] = tested on: Dengue-2 (Strain New Guinea C); experiment: Dengue-2 viral yield assay in Vero cells; type: cell-based; conditions: Dengue virus, read-out: Activity (anti-dengue 2 viral activity, EC50)
[2] = tested on: all four serotypes of dengue; experiment: Yield assay against each serotype of dengue virus in vero cells; type: cell-based; conditions: FIG. 1
Procedure: Initially, the chemical structures of the hit compounds were examined for chemical tractability. […] Hits that passed this medicinal chemistry filter were evaluated for their potency. Compound potency was determined by evaluating inhibitory activity across a broad range of concentrations. Nonlinear regression was used to generate best-fit inhibition curves and to calculate the 50% effective concentration (EC50). The selectivity or specificity of a given compound is typically expressed as a ratio of its cytotoxicity to its biological effect. A cell proliferation assay is used to calculate a 50% cytotoxicity concentration (CC50); the ratio of this value to the EC50 is referred to as the therapeutic index (T.I.=CC50/EC50). Two types of assays have been used to determine cytotoxicity, both of which are standard methods for quantitating the reductase activity produced in metabolically active cells (30). One is a colorimetric method that measures the reduction of 3-(4,5-dimethylthiazol-2-yl)-2,5-diphenyl-tetrazolium bromide (MTT), and the other uses fluorimetry to measure the reduction of resazurin (Alamar Blue). […] Verification that these compounds act against each of the four serotypes of dengue was done with yield assays carried out at several drug concentrations, and the titer determined for each. […]

[3] = Cytotoxicity (cell proliferation assay, MTT or Alamar Blue); type: cell-based; conditions: flag printed in the Activity column of Table 1
Procedure: Initially, the chemical structures of the hit compounds were examined for chemical tractability. […] Hits that passed this medicinal chemistry filter were evaluated for their potency. Compound potency was determined by evaluating inhibitory activity across a broad range of concentrations. Nonlinear regression was used to generate best-fit inhibition curves and to calculate the 50% effective concentration (EC50). The selectivity or specificity of a given compound is typically expressed as a ratio of its cytotoxicity to its biological effect. A cell proliferation assay is used to calculate a 50% cytotoxicity concentration (CC50); the ratio of this value to the EC50 is referred to as the therapeutic index (T.I.=CC50/EC50). Two types of assays have been used to determine cytotoxicity, both of which are standard methods for quantitating the reductase activity produced in metabolically active cells (30). One is a colorimetric method that measures the reduction of 3-(4,5-dimethylthiazol-2-yl)-2,5-diphenyl-tetrazolium bromide (MTT), and the other uses fluorimetry to measure the reduction of resazurin (Alamar Blue). […] Verification that these compounds act against each of the four serotypes of dengue was done with yield assays carried out at several drug concentrations, and the titer determined for each.

[4] = tested on: dengue; conditions: mouse model; cited from earlier work
[5] = tested on: dengue; conditions: cited from earlier work
[6] = Dengue-2 strain New Guinea C, Vero cells, MOI 0.1, harvested 48 hours post infection, viral yield

Row | Structure (SMILES) | pEC50 [1, 6] | toxic (flag beside activity class) [3] | other results
1 | NC(=O)C1(N2CCCCC2)CCN(C(=O)CSc2nc3ccccc3o2)CC1 [Compound 3, 1′-[2-(Benzooxazol-2-ylsulfanyl)-acetyl]-[1,4′]bipiperidinyl-4′-carboxylic acid amide] | – | – | pEC50 ([1]; Vero, 48 h): > 6.00; activity against dengue serotypes [2]: activity against all four serotypes of dengue
2 | O=C1CC(Sc2nc3ccccc3s2)C(=O)N1Cc1ccccc1 (stereo not shown) [Compound 4, 3-(Benzothiazol-2-ylsulfanyl)-1-benzyl-pyrrolidine-2,5-dione] | > 6.00 | toxic | –
3 | COc1ccccc1C(=O)C1CCCN(C(=O)CSc2nc3cc(C)ccc3[nH]2)C1 (stereo not shown) [Compound 12, 1-[3-(2-Methoxy-benzoyl)-piperidin-1-yl]-2-(5-methyl-1H-benzoimidazol-2-ylsulfanyl)-ethanone] | 5.00 to 6.00 | toxic | –
4 | Cn1c(SCC(=O)N2CCc3ccccc3C2)nc2ccccc21 [Compound 81, 1-(3,4-Dihydro-1H-isoquinolin-2-yl)-2-(1-methyl-1H-benzoimidazol-2-ylsulfanyl)-ethanone] | < 4.60 | – | –
5 | NC(=O)c1ncn([C@@H]2O[C@H](CO)[C@@H](O)[C@H]2O)n1 [ribavirin] | – | – | protection against dengue [4]: did not show protection against dengue; adverse effects induced ([5]; animal model not specified in the sentence (mouse or rhesus monkey)): induced anemia and thrombocytosis; protection against dengue ([5]; rhesus monkey model): did not show protection against dengue
